Measurements from ChEMBL document CHEMBL6182936, “Discovery of KDX1381, a Bivalent CK2α Inhibitor for the Treatment of Solid Tumors as a Single Agent or in Combination” (J Med Chem, 2025).
Values after ≈ are worked out from the molar mass of the structure shown. Active and inactive are the calls of the source. The rule behind the calls is not given here.

Experiments:
[1] = system: 786-0; experiment: cells; conditions: Homo sapiens, 786-0, 72 h
[2] = physchem; conditions: PBS buffer, pH 7.4
[3] = in vitro; conditions: mouse, hepatocytes
[4] = in vivo; conditions: CD-1, mouse, iv, 1 mg/kg
[5] = system: 786-0; conditions: Homo sapiens, dose 20.0 mg/kg, route po, time 28.0 day
[6] = in vivo; conditions: CD-1, mouse, ip, 40 mg/kg
[7] = physchem; conditions: NCl, pH 1.2
[8] = system: Hep 3B2; experiment: animal or person; conditions: Mus musculus, Hep3B, po, read-out: TGI
[9] = in vivo; conditions: CD-1, mouse, iv, 1 mg/kg; remark: listed apart in the source
[10] = in vivo; conditions: CD-1, mouse, ip, 40 mg/kg; remark: listed apart in the source
[11] = system: Hep 3B2; experiment: animal or person; conditions: Mus musculus, Hep3B, po, read-out: TGI; remark: listed apart in the source
[12] = in vivo; conditions: CD-1, mouse, ip, 40 mg/kg; remark: listed apart in the source
[13] = system: 786-0; experiment: animal or person; conditions: Mus musculus, 786-0, 384 h, read-out: TGI
[14] = system: 786-0; experiment: cells; conditions: Homo sapiens, 786-0, 72 h, read-out: Activity
[15] = system: 786-0; experiment: cells; conditions: Homo sapiens, 786-0, 72 h, read-out: Activity; remark: listed apart in the source
[16] = system: HCT-116; experiment: cells; conditions: Homo sapiens, HCT-116, 72 h, read-out: Activity
[17] = in vivo; conditions: CD-1, mouse, ip, 40 mg/kg; remark: listed apart in the source
[18] = animal or person; conditions: Homo sapiens, SF767, po, 1152 h, read-out: TGI
[19] = system: A-375; conditions: Homo sapiens, dose 5-40 mg/kg, route ip
[20] = system: 786-0; experiment: cells; conditions: Homo sapiens, 786-0, 72 h, read-out: Activity; remark: listed apart in the source
[21] = in vivo; conditions: CD-1, mouse, iv, 1 mg/kg; remark: listed apart in the source
[22] = animal or person; conditions: Homo sapiens, SF767, po, 1152 h, read-out: TGI; remark: listed apart in the source
[23] = physchem; conditions: PBS buffer, pH 7.4; remark: listed apart in the source
[24] = physchem; conditions: FaSSIF, pH 6.5
[25] = physchem
[26] = system: SK-BR-3; experiment: cells; conditions: Homo sapiens
[27] = system: 786-0; experiment: cells; conditions: Homo sapiens
[28] = system: SK-BR-3; experiment: cells; conditions: Homo sapiens; remark: listed apart in the source
[29] = system: 786-0; experiment: cells; conditions: Homo sapiens; remark: listed apart in the source
[30] = system: Hep 3B2; experiment: animal or person; conditions: Mus musculus, Hep3B, po, read-out: TGI; remark: listed apart in the source
[31] = system: 786-0; experiment: cells; conditions: Homo sapiens, 786-0, 72 h, read-out: Activity; remark: listed apart in the source
[32] = animal or person; conditions: Homo sapiens, SF767, po, 1152 h, read-out: TGI; remark: listed apart in the source

CC(=O)c1[nH]c2ccc(F)cc2c1-c1cn(CC2CCN(CCNS(=O)(=O)c3ccc(-c4c(O)cccc4F)c(C)c3)CC2)nn1
IC50 [1]: 6.6 µM | solubility at 24 h [2]: 3.4 µg/mL (≈ 5.24 µM) | remaining at 0.5 h [3]: 27%

CCOC(=O)c1[nH]c2ccc(F)cc2c1-c1cn(CC2CCN(CCNS(=O)(=O)c3ccc(CC(C)C)cc3)CC2)nn1
IC50 [1]: > 10 µM | solubility at 24 h [2]: < 0.5 µg/mL | remaining at 0.5 h [3]: < 10%

CC(=O)c1[nH]c2ccc(F)cc2c1-c1cn(CC2CCN(CCNS(=O)(=O)c3ccc(-c4ccccc4O)cc3)CC2)nn1
IC50 [1]: 0.9 µM | solubility at 24 h [2]: 18.5 µg/mL (≈ 30 µM) | remaining at 0.5 h [3]: 46%

CC(=O)c1[nH]c2ccc(F)cc2c1-c1cn(CC2CCN(CCNS(=O)(=O)c3ccc(-c4c(O)cccc4F)cc3)CC2)nn1
Vd at 24 h [4]: 5.9 L/kg | IC50 [1]: 0.8 µM | TGI [5]: Active | bioavailability at 24 h [6]: > 100% | solubility [7]: 28.2 µg/mL (≈ 44.4 µM) | inhibition in vivo at 30 mg/kg [8]: 95% | clearance at 24 h [9]: 60.5 mL/min/kg | AUC(0-inf) at 24 h [10]: 8640 ng·h/mL | inhibition in vivo at 30 mg/kg [11]: 74% | Tmax at 24 h [12]: 1.33 h | inhibition in vivo at 40 mg/kg [13]: 90% | viability at 10 µM [14]: 12.7% | viability at 1 µM [15]: 90.4% | viability at 10 µM [16]: 85.1% | Cmax at 24 h [17]: 2700 ng/mL | inhibition in vivo at 40 mg/kg [18]: 77% | TGI [19]: Active | solubility at 24 h [2]: 10.7 µg/mL (≈ 16.9 µM) | viability at 1 µM [20]: 25% | half-life at 24 h [21]: 1.13 h | inhibition in vivo at 40 mg/kg [22]: 103% | remaining at 0.5 h [3]: 42% | solubility [23]: 1.7 µg/mL (≈ 2.68 µM) | solubility [24]: > 100 µg/mL

CC(=O)c1[nH]c2ccc(F)cc2c1-c1cn(CC2CCN(CCNS(=O)(=O)c3ccc(-c4c(O)cccc4F)c(Cl)c3)CC2)nn1
IC50 [1]: > 10 µM | solubility at 24 h [2]: < 0.5 µg/mL

CC(C)Cc1ccc(S(=O)(=O)NCCN2CCC(Cn3cc(-c4c(C(=O)C5CC5)[nH]c5ccc(F)cc45)nn3)CC2)cc1
IC50 [1]: > 10 µM | solubility at 24 h [2]: < 0.5 µg/mL

CC(C)COC(=O)c1[nH]c2ccc(F)cc2c1-c1cn(CC2CCN(CCNS(=O)(=O)c3ccc(CC(C)C)cc3)CC2)nn1
IC50 [1]: > 10 µM | solubility [25]: < 0.5 µg/mL | IC50 [26]: 8.9 µM | IC50 [27]: 14.8 µM | IC50 [28]: 8.9 µM | solubility at 24 h [2]: < 0.5 µg/mL | remaining at 0.5 h [3]: < 10% | IC50 [29]: 14.8 µM

CNC(=O)c1cc(Oc2ccc(NC(=O)Nc3ccc(Cl)c(C(F)(F)F)c3)cc2)ccn1 [SORAFENIB]
inhibition in vivo at 40 mg/kg [30]: 29% | viability at 4.5 µM [31]: 88%

CC(C)Cc1ccc(S(=O)(=O)NCCN2CCC(Cn3cc(-c4c[nH]c5ccc(F)cc45)nn3)CC2)cc1
IC50 [1]: 6.8 µM | solubility at 24 h [2]: 1.5 µg/mL (≈ 2.78 µM) | remaining at 0.5 h [3]: 25%

CC(=O)c1[nH]c2ccc(F)cc2c1-c1cn(CC2CCN(CCNS(=O)(=O)c3ccc(-c4c(F)cccc4C(F)(F)F)cc3)CC2)nn1
IC50 [1]: > 10 µM | solubility at 24 h [2]: < 0.5 µg/mL

COc1cccc(OC)c1-c1ccc(S(=O)(=O)NCCN2CCC(Cn3cc(-c4c(C(C)=O)[nH]c5ccc(F)cc45)nn3)CC2)cc1C
IC50 [1]: 1.7 µM | solubility at 24 h [2]: 1.9 µg/mL (≈ 2.82 µM) | remaining at 0.5 h [3]: 44%

COc1cccc(F)c1-c1ccc(S(=O)(=O)NCCN2CCC(Cn3cc(-c4c(C(C)=O)[nH]c5ccc(F)cc45)nn3)CC2)cc1
IC50 [1]: > 10 µM | solubility at 24 h [2]: 5.4 µg/mL (≈ 8.32 µM) | remaining at 0.5 h [3]: 48%

CC(=O)c1[nH]c2ccc(F)cc2c1-c1cn(CC2CCN(CCNS(=O)(=O)c3ccc(-c4c(O)cccc4F)c(C#N)c3)CC2)nn1
solubility at 24 h [2]: 25.5 µg/mL (≈ 38.7 µM)

CC(C)Cc1ccc(S(=O)(=O)NCCN2CCC(Cn3cc(-c4c[nH]c5ccccc45)nn3)CC2)cc1
IC50 [1]: 5.9 µM | solubility at 24 h [2]: 2.7 µg/mL (≈ 5.19 µM) | remaining at 0.5 h [3]: 18%

CC(=O)c1[nH]c2ccc(F)cc2c1-c1cn(CC2CCN(CCNS(=O)(=O)c3ccc(-c4c(O)cccc4F)c(C(F)(F)F)c3)CC2)nn1
IC50 [1]: 3.6 µM | solubility at 24 h [2]: 1.1 µg/mL (≈ 1.57 µM) | remaining at 0.5 h [3]: < 10%

Cn1nnc2c(C(N)=O)ncn2c1=O [TEMOZOLOMIDE]
inhibition in vivo at 20 mg/kg [32]: 67%

CC(=O)c1[nH]c2ccc(F)cc2c1-c1cn(CC2CCN(CCNS(=O)(=O)c3ccc(-c4c(O)cccc4Cl)cc3)CC2)nn1
IC50 [1]: 3.3 µM | solubility at 24 h [2]: < 0.5 µg/mL

CC(=O)c1[nH]c2ccc(F)cc2c1-c1cn(CC2CCN(CCNS(=O)(=O)c3ccc(CC(C)C)cc3)CC2)nn1
IC50 [1]: 3.2 µM | solubility at 24 h [2]: 10.4 µg/mL (≈ 17.9 µM) | remaining at 0.5 h [3]: 53%

CC(=O)c1[nH]c2ccc(F)cc2c1-c1cn(CC2CCN(CCNS(=O)(=O)c3ccc(-c4cccc5ccsc45)cc3)CC2)nn1
IC50 [1]: > 10 µM

O=C(O)c1ccc2c(c1)nc(Nc1cccc(Cl)c1)c1ccncc12 [SILMITASERTIB]
viability at 10 µM [14]: 93.5% | viability at 10 µM [16]: 69.2%

CC(C)Cc1ccc(S(=O)(=O)NCCN2CCC(Cn3cc(-c4c(C(=O)C(C)C)[nH]c5ccc(F)cc45)nn3)CC2)cc1
IC50 [1]: > 10 µM | solubility at 24 h [2]: 0.9 µg/mL (≈ 1.48 µM) | remaining at 0.5 h [3]: 15%

CSc1ccccc1-c1ccc(S(=O)(=O)NCCN2CCC(Cn3cc(-c4c(C(C)=O)[nH]c5ccc(F)cc45)nn3)CC2)cc1C
IC50 [1]: > 10 µM | solubility at 24 h [2]: < 0.5 µg/mL | remaining at 0.5 h [3]: 26%

COc1ccccc1-c1ccc(S(=O)(=O)NCCN2CCC(Cn3cc(-c4c(C(C)=O)[nH]c5ccc(F)cc45)nn3)CC2)cc1C
IC50 [1]: 2.9 µM

COc1cc(S(=O)(=O)NCCN2CCC(Cn3cc(-c4c(C(C)=O)[nH]c5ccc(F)cc45)nn3)CC2)ccc1-c1c(O)cccc1F
IC50 [1]: > 10 µM | solubility at 24 h [2]: 3.2 µg/mL (≈ 4.81 µM) | remaining at 0.5 h [3]: 39%

COc1cccc(OC)c1-c1ccc(S(=O)(=O)NCCN2CCC(Cn3cc(-c4c(C(C)=O)[nH]c5ccc(F)cc45)nn3)CC2)cc1
IC50 [1]: > 10 µM | solubility at 24 h [2]: 8 µg/mL (≈ 12.1 µM) | remaining at 0.5 h [3]: 67%
